Consider four substances from US11542508B2, “Isolated polynucleotides and polypeptides and methods of using same for expressing an expression product of interest” (priority 2016, dated 2023).

In assay [1] the test system is phi3T. Kind of assay: Growth dynamics of phage-infected cultures (phi3T infection of B. subtilis 168). Type of assay: cell-based. The following applies: B. subtilis 168 infected by phi3T at MOI=0.1, LB supplemented with synthesized peptide. As for the experimental part: Specifically, overnight cultures of B. subtilis strain 168 were diluted 1:50 in LB media supplemented with 0.1 mM MnCl2 and 5 mM MgCl2, and incubated at 37° C. with shaking until reaching optical density (O.D) 600 nm=0.5. Phages (phi29, phi105, rho14 or phi3T) were added to the bacterial culture at MOI=1 and incubated for 3 hours. The media were centrifuged at 4000 rpm for 10 minutes at 4° C. and the supernatant was filtered with 0.2 μm filer (GE Healthcare Life Sciences, Whatman, CAT #10462200). Phages and large molecules were further filtered out from the media by using Amicon Ultra centrifugal filters at a cutoff of 3,000 NMWL (3 kDa) (Milipore, CAT #UFC900324). A plaque assay was performed in order to verify that no phages were left in the medium.
7.5 mg (per reaction) of Proteinase K-Agarose from Tritirachium album (Sigma, CAT #P9290) were washed twice with 750 μl of sterile water and then resuspended with 750 μl of LB supplemented with 0.1 mM MnCl2 and 5 mM MgCl2. Following, the tubes were centrifuged again and the supernatant was discarded. 1.5 ml of phi3T-derived conditioned medium or control medium was added to a tube containing the washed proteinase K. The media were incubated for 2 hours at 37° C. with the proteinase K. The media were centrifuged and the supernatants were collected for the infection assay.
(§1) Overnight cultures of bacteria were diluted 1:100 in LB media and incubated at 37° C. with shaking until reaching O.D 600 nm=0.1. The bacterial culture was centrifuged at 4000 rpm for 10 minutes at room temperature. The supernatant was discarded and the pellet was resuspended in LB medium supplemented with 0.1 mM MnCl2 and 5 mM MgCl2 at 10% of the initial volume. The concentrated bacterial culture was added to conditioned medium or medium supplemented with synthesized arbitrium peptide in a ratio of 1:9 (bacteria to medium) and incubated for 1 hour at room temperature. Following, the culture was infected with phages at MOI=0.1. Optical density measurements at a wavelength of 600 nm were taken using a TECAN Infinite 200 plate reader in a 96-wells plate.

In assay [2] the target is T1, AimR (Bacillus phage phi3T, UniProt P0DOE3).
T1 construct: made in house; host or cells: E. coli BL21(DE3), pET28a
T1 sequence (P0DOE3 whole entry, looked up): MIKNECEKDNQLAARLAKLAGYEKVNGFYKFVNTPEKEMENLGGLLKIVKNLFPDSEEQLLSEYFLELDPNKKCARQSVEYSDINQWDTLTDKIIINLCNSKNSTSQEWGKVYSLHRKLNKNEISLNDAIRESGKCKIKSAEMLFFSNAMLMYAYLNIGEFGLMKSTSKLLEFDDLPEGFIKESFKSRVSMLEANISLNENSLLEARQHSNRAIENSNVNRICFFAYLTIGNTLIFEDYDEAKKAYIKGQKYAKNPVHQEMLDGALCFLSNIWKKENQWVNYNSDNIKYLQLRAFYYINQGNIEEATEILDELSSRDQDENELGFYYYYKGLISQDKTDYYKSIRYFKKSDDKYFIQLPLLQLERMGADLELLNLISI
Kind of assay: Analytical gel filtration of purified AimR (oligomeric state). Particulars: AimR:SAIRGA 1:2, AimR:GMPRGA 1:1 molar ratio. Here is the method: Following, AimR was expressed in E. coli BL21(DE3) cells with a C-terminal 6× His-tag. Expression was performed at 15° C. for about ˜18 hours using 200 μM IPTG (Isopropyl β-D-1-thiogalactopyranoside) as an inducer. The cells pellet was resuspended in lysis buffer [50 mM Tris pH 8, 0.3M NaCl, 20 mM Imidazole, 2 mM DTT, 0.2 mg/ml Lysozyme, 1 μg/ml DNAse, protease inhibitor cocktail (Calbiochem)], disrupted by a cell disrupter at 4° C. and clarified at 15,000 g for 30 minutes. The clarified lysate was loaded onto a HisTrap_FF_5 ml column (GE Healthcare) and washed with buffer containing 50 mM Tris pH 8, 0.3 M NaCl, 20 mM imidazole and 2 mM DTT. AimR was eluted from the column in one step with the same buffer containing 0.5 M imidazole. Fractions containing AimR were pooled and injected to a size exclusion column (HiLoad_16/60_Superdex_200_prepgrade,GE_Healthcare) equilibrated with 20 mM Tris pH 8, 0.3 M NaCl, 2 mM TCEP. Fractions containing pure AimR were pooled and flash frozen in aliquots using liquid nitrogen.
Pure AimR was injected to an analytical gel filtration column (Superdex_200_Increase_10/30 GL, GE Healthcare) equilibrated with buffer containing 20 mM Tris pH 8, 0.3 M NaCl, 2 mM TCEP. […]

Assay [3] concerns the target T2, phi3T AimR receptor (Bacillus phage phi3T, UniProt P0DOE3).
T2 construct: made in house; host or cells: E. coli BL21(DE3), pET28a
T2 sequence (P0DOE3 whole entry, looked up): T1 sequence (P0DOE3 whole entry, looked up)
Type of assay: binding. Particulars: AimR 200 nM, peptide 9-4000 nM.
Procedure: Two-step purified 6×His-tagged AimR stored in Tris/NaCl buffer (50 mM Tris pH 8.0, 150 mM NaCl, 2 mM TCEP) at −80° C. was thawed on ice and centrifuged at 21,000 g for 10 minutes at 4° C. prior to analysis. Peptides [SAIRGA (SEQ ID NO: 269) and GMPRGA (SEQ ID NO: 271)] were solubilized in 50 mM Tris-HCl pH 8.0, 150 mM NaCl to a final concentration of 100 μM. AimR was diluted to 200 nM and was incubated with 16 different peptide concentrations varying between 9-4000 nM, which were prepared in Tris/NaCl buffer containing 0.1% [v/v] Pluronic acid (NanoTemper). Roughly 3 μl were loaded into NT.LabelFree Zero-Background Premium Coated Capillaries (NanoTemper) and inserted into a Monolith NT.LabelFree device (NanoTemper). MST experiments were performed at 60% MST power (infra-red laser) and 20% LED power at 23° C. using the Monolith NT.LabelFree instrument (Nanotemper). Ratios between normalized initial fluorescence and post-temperature-jump and thermophoresis were calculated and averaged from 3 independent runs (runs were incubated for 20 minutes at room temperature before the measurement). A plot of fluorescence ratios versus peptide concentration was used to assess the binding capacity of the phage protein and its cognate peptide ligand.

The test system of assay [4] is spBeta. As to the kind of experiment: Growth dynamics of phage-infected cultures (spBeta infection of B. subtilis BEST7003). Type of assay: cell-based. Particulars: B. subtilis BEST7003 infected by spBeta at MOI=0.1, LB supplemented with synthesized peptide. As for the experimental part: as §1

“Also recorded” adds a separate entry of the source.

Regarding “SAIRG: shorter, 5 amino acids version of the SAIRGA peptide”, the “effect on the phage infection dynamics (culture lysis, growth curve)” value (shortened to “effect on the phage infection dynamics”) in assay [1] is “neither observed; also recorded: do not guide lysogeny”. Turning to “AIRGA: shorter, 5 amino acids version of the SAIRGA peptide”, in assay [1], the “effect on the phage infection dynamics” value is reported as “neither observed; also recorded: do not guide lysogeny”.

As to “GMPRGA: predicted mature AimP-derived arbitrium peptide of spBeta”, in assay [2], the “AimR oligomeric state (migration in gel filtration column)” value is on record as “did not lead to a change in the AimR oligomeric state”. In assay [3], the “specific binding to the phi3T AimR receptor (MST)” value is reported as “did not show specific binding”. The “effect on the phage infection dynamics” value in assay [1] is given as “did not affect the lysogeny profile of phi3T”. Besides, the “effect on lysogeny / infection dynamics of spBeta” value in assay [4] is “promoted lysogeny of spBeta”. Take “PhrC: a known quorum sensing peptide of B. subtilis (ERGMT)”: the “effect on the phage infection dynamics” value in assay [1] is on record as “neither observed”.
